Source: patent US8334107B2, “Detection systems utilizing supported lipid bilayers” (priority 2005, dated 2012)

How the values were obtained:
[1] = tested on: DMPG bilayer on PPE-coated beads; assay: Microfluidic assay: detection of lipid bilayer disruption by fluorescence superquenching; assay type: biochemical; settings: injected as 1:1 mixture with 120 μM AQS
Description: The preparation of microcolumns with PPE-coated, silica beads was similar to that of with fluorescein containing beads. A 10 μL aliquot of 120 μM AQS was injected to the column. After a certain period of time, a 10 μL aliquot of 1:1 mixture of 120 μM AQS and 220 μM melittin was injected. During this process, the PPE-coated silica bead segment was irradiated at 488 nm and its fluorescence emission intensity was measured at 520 nm every 10 minutes. This experiment was repeated, while injecting 220 μM melittin first, and then 120 μM AQS.
The feasibility of using superquenching as a method of detecting membrane-toxin interactions in microcolumns was also investigated. The fluorescence intensity of the cationic polyelectrolyte poly(p-phenylene-ethynylene) polymer (PPE) can be super-quenched by the quencher 9,10-anthraquinone-2,6-disulfonic acid (AQS). […] It has been observed in flow cytometric studies that formation of DMPG membranes on PPE-coated beads will quench the PPE fluorescence to some extent. The initial rise in fluorescence intensity was probably due to the unquenching of the PPE, due to the removal of lipid bilayers from PPE-coated beads through melittin interaction, whereas the decrease in fluorescence corresponded to superquenching of PPE by AQS after disruption of DMPG bilayer by melittin. […]

[2] = tested on: 80:20 (molar ratio) DMPG and DMPC lipid bilayers on porous silica beads; assay: Suspension study: melittin-induced release of fluorescein dye from DMPG/DMPC coated porous beads; assay type: biochemical; settings: 220 μM melittin, 25° C., 80:20 DMPG:DMPC
Description: Experimental procedures were similar to the Triton X-100® detergent based analysis. For experiments with α-toxin, three different toxin concentrations: 15, 45 and 250 μg/mL were used at 37° C. and 25° C. Beads coated with EPC were used. In the experiments with melittin, 220 μM melittin was used with beads coated with either 100% EPC, 10:90 (molar ratio) mixture of DMPG and EPC or an 80:20 mixture of DMPG and DMPC. All melittin experiments were conducted at 25° C.
Previous suspension studies on disruption of lipid bilayers have been performed with small unilamellar vesicles where disruption of the lipid bilayer membranes was detected by monitoring the unquenching of a highly concentrated, encapsulated dye. In the present work disruption was monitored via release of fluorescein dye from porous beads, by measuring the increase in fluorescence intensity of the supernatant at 520 nm. Beads were first suspended in Tris buffer containing the disruptor. […] The measured portion was added back to the bead sample to permit continuous monitoring. […]
In view of the results shown in FIG. 5, the effects of melittin on other mixtures of lipids were examined. […] The increase in fluorescence intensity due to the membrane-melittin interaction, which results in the release of dye from porous beads was about 10 fold. […]

[3] = tested on: 80:20 (molar ratio) DMPG and DMPC membrane on biotin containing porous beads; assay: Microfluidic study: detection of membrane interaction by release of reagent (biotin, ostrich quenching-unquenching); assay type: biochemical; settings: 20 μL of melittin (220 μM), flow ~1.2 μL/min
Description: A microchannel was packed with a segment (about 1 mm) of streptavidin coated beads to which a non saturating amount of fluorescein biotin had been bound. This was followed by a segment (about 1 mm) of blank silica beads and a segment (about 2 mm) of lipid coated porous beads containing biotin. The blank silica beads were served as the spacer to prevent mixing of fluorescein biotin beads with biotin encapsulated beads. Biotin (25 mM) was encapsulated (according to the same procedure for fluorescein) with a 80:20 (molar ratio) mixture of DMPG and DMPC. A […] aliquot of either 10% Triton X-100® detergent or 220 μM melittin was injected to the column. The fluorescein biotin bead segment was irradiated at 488 nm and its fluorescence emission intensity was measured at 520 nm every 10 minutes.
In this study the membrane-toxin interaction was investigated using the microcolumn system by monitoring a bimolecular reaction on downstream beads. […] The unquenching of fluorescence was the signal for the disruption. […] Introduction of free biotin displaced the fluorescein from the cis binding pocket thus unquenching the fluorescence signal. […]
20 μL of melittin (220 μM) was injected to the bead packed microchannel at 18 min. […] The initial fluorescence intensity decrease is again due to photobleaching, resulting from exposure of the fluorescein-biotin segment to the Ar ion laser. […]

lipid bilayer = assay: Superquenching of fluorescent polymer coated lipid bilayer beads (general statement); assay type: biochemical; settings: streptolysin O with cholesterol-containing lipids, mellitin with anionic lipids
From the text: On the other hand, some test agents may only lead to gaps or smaller interruptions of the lipid bilayer, for example, as a result of insertion of a channel- or pore-forming proteins such as gramicidin and hemolysin. In either case, the result is either complete or partial superquenching of the fluorescent polymer. In general, non-porous beads are used for such quenching assays because the quenchable polymer is preferably coated onto the beads and is not impregnated into the beads.

[4] = tested on: immobilized anionic DMPG membranes; settings: surface plasmon resonance; cited from earlier work
DMPG supported on MS-PPE = assay: Binding curves of MLT to DMPG supported on MS-PPE (superquenching flow cytometric assay); settings: flow cytometry, 10 μM AQS
Description: FIGS. 18A-B show binding curves for MLT-disruption of supported lipid bilayer by natural MLT (nMLT; FIG. 18A), and synthetic MLT (sMLT; FIG. 18B). Fluorescence intensity was normalized to that without MLT as determined by flow cytometry. The error bars represent the standard deviation (SD) of the means of normalized histograms obtained for 3 replicates.
(§1) Bead suspensions of 2.5×10^5 DMPG-coated MS-PPE in 200 μL of PBS were analyzed using a FACScan flow cytometer (Becton-Dickinson, Sunnyvale, Calif.) with excitation at 488 nm. Fluorescence signals were acquired on FL-1 channel (525 nm) using log amplification and analyzed with the CellQuest software. Kinetic analysis of disruption of supported lipid bilayer by melittin was performed by acquiring real-time data with continuous mixing of samples (10^6 MS-PPE in 800 μl of PBS) using a magnetic stirrer. The raw data were analyzed using IDL Query software developed by Bruce Edwards (Cancer Center, University of New Mexico, Albuquerque, N. Mex.).
From FIG. 18, the association constant (corresponding to the reciprocal of the point of half saturation) for nMLT and sMLT with DMPG were 5×10^6 M^−1 and 1.7×10^6 M^−1, respectively. […] Lower concentrations of nMLT, in comparison to sMLT, were required to disrupt the DMPG lipid bilayer. This might be attributed to the fact that nMLT contains some phospholipase A2 (PLA2) as a contaminant. […]

[5] = tested on: DMPG lipid bilayer on MS-PPE; assay: Disruption of DMPG lipid bilayer on MS-PPE detected by superquenching with AQS, flow cytometry; assay type: biochemical
Description: Lipid bilayers were disrupted by adding Triton X-100® detergent to the bead suspension to a final concentration of 0.25% (w/v).
Bead suspensions of 2.5×10^5 PPE-coated microspheres in 200 μL PBS were analyzed using a FACScan flow cytometer (Becton-Dickinson, Sunnyvale, Calif.) with excitation at 488 nm. Fluorescence signals were acquired on the FL-1 channel (525 nm) using log amplification and analyzed with the CellQuest software.
as §1
Because an anionic lipid was used to form a lipid bilayer around MS-PPE, it was expected that MLT will disrupt the DMPG lipid bilayer by such a detergent-like action. This was tested by adding 10 μM AQS to DMPG-coated MS-PPE followed by treatment with one of the following: Triton X-100® detergent, synthetic MLT (sMLT), or natural MLT (nMLT) and immediately reading the fluorescence by flow cytometry. […] These histograms resemble the ones reported previously for MS-PPE, without a lipid coating, in absence and in presence of AQS.
The kinetics of disruption of supported lipid bilayer by MLT were monitored by measuring real-time changes in fluorescence intensity by flow cytometry (FIG. 19). Suspensions of 10^6 DMPG-coated MS-PPE in 800 μL of PBS were treated with AQS at a final concentration of 10 μM, then with either sMLT, Triton X-100® detergent, or no treatment. […] Treatment with sMLT in the absence of AQS led to an increase in normalized fluorescence (FIG. 19, trace A). This can be attributed to disruption of the lipid bilayer by sMLT, and is consistent with a reversal of the slight quenching of fluorescence caused by the formation of a DMPG lipid bilayer over MS-PPE. Addition of AQS alone to DMPG-coated MS-PPE (FIG. 19, trace C) led to a 20% reduction in fluorescence as reported earlier. Addition of Triton X-100® detergent to DMPG-coated MS-PPE after the addition of AQS (first dip in trace E, FIG. 19) caused immediate decrease in fluorescence to ˜10% of its original value (second dip in trace E, FIG. 19). In contrast, addition of sMLT, after the addition of AQS, (FIG. 19, trace D) led to a gradual reduction of fluorescence intensity to ˜20% of the original value. Although MLT forms dimers at high concentrations (Dempsey, C. E. Biochim. Biophys. Acta 1990, 1031, 143-161), it is monomeric at the concentrations used in this study. On the other hand, Triton X-100® detergent forms micelles at the concentration used in this study.

CC[C@H](C)[C@H](NC(=O)CN)C(=O)NCC(=O)N[C@@H](C)C(=O)N[C@H](C(=O)N[C@@H](CC(C)C)C(=O)N[C@@H](CCCCN)C(=O)N[C@H](C(=O)N[C@@H](CC(C)C)C(=O)N[C@H](C(=O)N[C@H](C(=O)NCC(=O)N[C@@H](CC(C)C)C(=O)N1CCC[C@H]1C(=O)N[C@@H](C)C(=O)N[C@@H](CC(C)C)C(=O)N[C@H](C(=O)N[C@@H](CO)C(=O)N[C@@H](Cc1c[nH]c2ccccc12)C(=O)N[C@H](C(=O)N[C@@H](CCCCN)C(=O)N[C@@H](CCCNC(=N)N)C(=O)N[C@@H](CCCCN)C(=O)N[C@@H](CCCNC(=N)N)C(=O)N[C@@H](CCC(N)=O)C(=O)N[C@@H](CCC(N)=O)C(N)=O)[C@@H](C)CC)[C@@H](C)CC)[C@@H](C)O)[C@@H](C)O)C(C)C)C(C)C [melittin]
change in fluorescence intensity of bead segment [1]: slight rise in fluorescence intensity followed by a significant decrease | increase in fluorescence intensity due to the membrane-melittin interaction [2]: about 10 fold | increase in fluorescence intensity of fluorescein-biotin segment [3]: not as high as that observed for Triton X-100 | effect on the lipid bilayer (lipid bilayer): total disruption of the bilayer

sMLT: synthetic melittin obtained from Sigma
association constant [4]: 2e+06 M⁻¹ | association constant (reciprocal of the point of half saturation) with DMPG (DMPG supported on MS-PPE): 1.7e+06 M⁻¹ | quenching of the MS-PPE after treatment ([5]; 10 μM AQS, sMLT 3.8 μM, nMLT 1.6 μM): comparable to that occurring on addition of Triton X-100 | fluorescence intensity, of the original value ([5]; real-time kinetics, added after 10 μM AQS (traces D, E)): ~20%
